In this experiment the target is T1, PDE5A1 (Homo sapiens, UniProt O76074).
T1 construct: from tissue; host or cells: human platelets from fresh donor blood (10,000 x g supernatant of sonicated lysate)
The experiment is described as follows: Inhibition of type 5 phosphodiesterase (PDE5) activity, modified SPA test with human platelet lysate. It counts as biochemical. The following applies: 0.5 μM cGMP, read-out: PDE5A1 inhibitory values [measured as −log IC50 (mol/l)] (converted). The protocol: Method for Measuring Inhibition of the Type 5 Phosphodiesterase (PDE5) Activity:
As a source for human PDE5, platelets are used. For that purpose, 150 ml fresh blood from human donors anticoagulated with citrate [final concentration 0.3% (w/v)] is centrifuged at 200 g for 10 min to obtain the so-called platelet-rich-plasma (PRP) as a supernatant. 1/10 volume of ACD solution (85 mM Na3-citrate, 111 mM D-glucose, 71 mM citric acid, pH 4.4) is added to 9/10 volume of PRP. After centrifugation (1,400 g, 10 min) the cell pellet is resuspended in 3 ml homogenization buffer (NaCl 140 mM, KCl 3.8 mM, EGTA (ethylene glycol tetraacetic acid) 1 mM, MgCl2 1 mM, Tris-HCl 20 mM, beta-mercaptoethanol 1 mM, pH 8.2) plus protease-inhibitor mix giving rise to the final concentrations of 0.5 mM Pefablock (Roche), 10 μM Leupeptin, 5 μM Trypsininhibitor, 2 mM Benzamidin and 10 μM Pepstatin A. The suspension is sonified and thereafter centrifuged for 15 min at 10,000 g. The resulting supernatant (platelet lysate) is used for enzymatic testings.
PDE5A1 activity is inhibited by the compounds of the present subject matter in a modified SPA (scintillation proximity assay) test, supplied by Amersham Biosciences (see procedural instructions “phosphodiesterase [3H]cAMP SPA enzyme assay, code TRKQ 7090”), carried out in 96-well microtitre plates (MTP's). The test volume is 100 μl and contains 20 mM Tris buffer (pH 7.4), 0.1 mg of BSA (bovine serum albumin)/ml, 5 mM Mg^2+, 1 μM motapizone, 10 nM PDE2 inhibitor 2-(3,4-dimethoxybenzyl)-7-[(1R,2R)-2-hydroxy-1-(2-phenylethyl)propyl]-5-methylimidazo[5,1-f][1,2,4]triazin-4(3H)-one, 0.5 μM cGMP (cyclic guanosine monophosphate) (including about 50,000 cpm of [3H]cGMP as a tracer), 1 μl of the respective compound dilution in dimethylsulfoxide (DMSO) and sufficient PDE5-containing platelet lysat (10,000×g supernatant, see above) to ensure that 10-20 wt % of the cGMP is converted under the said experimental conditions. […] After a preincubation of 5 min at 37° C., the reaction is started by adding the substrate (cGMP) and the assay is incubated for a further 15 min; after that, it is stopped by adding SPA beads (50 μl). In accordance with the manufacturer's instructions, the SPA beads had previously been resuspended in water, but are then diluted 1:3 (v/v) in water; the diluted solution also contains 3 mM […] (IBMX) to ensure a complete PDE activity stop. After the beads have been sedimented (>30 min), the MTP's are analyzed in commercially available luminescence detection devices. The corresponding IC50 values of the compounds for the inhibition of PDE activity are determined from the concentration-effect curves by means of non-linear regression.
Turning to `COc1cc(-c2ncnc3c(C(=O)N[C@@H]4CN(C(C)=O)C[C@H]4O)c(C)[nH]c23)c(OCC2CC2)cc1F` (relative stereo) [Example E183, N-[(3R*,4R*)-1-Acetyl-4-hydroxypyrrolidin-3-yl]-4-[2-(cyclopropylmethoxy)-4-fluoro-5-methoxyphenyl]-6-methyl-5H-pyrrolo[3,2-d]pyrimidine-7-carboxamide], the IC50 is less than 1 nM. In the case of `CCC(=O)N1C[C@@H](O)[C@H](NC(=O)c2c(C)[nH]c3c(-c4cc(OC)c(F)cc4OCC4CC4)ncnc23)C1` (relative stereo) [Example E184, 4-[2-(Cyclopropylmethoxy)-4-fluoro-5-methoxyphenyl]-N-[(3R*,4R*)-4-hydroxy-1-propionylpyrrolidin-3-yl]-6-methyl-5H-pyrrolo[3,2-d]pyrimidine-7-carboxamide], the IC50 is less than 1 nM. With `COCC(=O)N1C[C@@H](O)[C@H](NC(=O)c2c(C)[nH]c3c(-c4cc(OC)c(F)cc4OCC4CC4)ncnc23)C1` (relative stereo) [Example E185, 4-[2-(Cyclopropylmethoxy)-4-fluoro-5-methoxyphenyl]-N-[(3R*,4R*)-4-hydroxy-1-(methoxyacetyl)pyrrolidin-3-yl]-6-methyl-5H-pyrrolo[3,2-d]pyrimidine-7-carboxamide], the IC50 is less than 1 nM. For the molecule `COc1cc(OCC2CC2)c(-c2ncnc3c(C(=O)N[C@@H]4CN(C(C)=O)C[C@H]4O)c(C)[nH]c23)cc1F` (relative stereo) [Example E189, N-[(3R*,4R*)-1-Acetyl-4-hydroxypyrrolidin-3-yl]-4-[2-(cyclopropylmethoxy)-5-fluoro-4-methoxyphenyl]-6-methyl-5H-pyrrolo[3,2-d]pyrimidine-7-carboxamide], the IC50 is less than 1 nM. Consider `CCC(=O)N1C[C@@H](O)[C@H](NC(=O)c2c(C)[nH]c3c(-c4cc(F)c(OC)cc4OCC4CC4)ncnc23)C1` (relative stereo) [Example E190, 4-[2-(Cyclopropylmethoxy)-5-fluoro-4-methoxyphenyl]-N-[(3R*,4R*)-4-hydroxy-1-propionylpyrrolidin-3-yl]-6-methyl-5H-pyrrolo[3,2-d]pyrimidine-7-carboxamide], for which the IC50 is less than 1 nM.

On to `COCC(=O)N1C[C@@H](O)[C@H](NC(=O)c2c(C)[nH]c3c(-c4cc(F)c(OC)cc4OCC4CC4)ncnc23)C1` (relative stereo) [Example E191, 4-[2-(Cyclopropylmethoxy)-5-fluoro-4-methoxyphenyl]-N-[(3R*,4R*)-4-hydroxy-1-(methoxyacetyl)pyrrolidin-3-yl]-6-methyl-5H-pyrrolo[3,2-d]pyrimidine-7-carboxamide], for which the IC50 is less than 1 nM.

Regarding `COc1ccc(OCC2CC2)c(-c2ncnc3c(C(=O)N[C@@H]4CN(C(C)=O)C[C@H]4O)c(C)[nH]c23)c1` (relative stereo) [Example E192, N-[(3R*,4R*)-1-Acetyl-4-hydroxypyrrolidin-3-yl]-4-[2-(cyclopropylmethoxy)-5-methoxyphenyl]-6-methyl-5H-pyrrolo[3,2-d]pyrimidine-7-carboxamide], the IC50 is 1 to 10 nM. On to `CCC(=O)N1C[C@@H](O)[C@H](NC(=O)c2c(C)[nH]c3c(-c4cc(OC)ccc4OCC4CC4)ncnc23)C1` (relative stereo) [Example E193, 4-[2-(Cyclopropylmethoxy)-5-methoxyphenyl]-N-[(3R*,4R*)-4-hydroxy-1-propionylpyrrolidin-3-yl]-6-methyl-5H-pyrrolo[3,2-d]pyrimidine-7-carboxamide], for which the IC50 is 1 to 10 nM. For `COCC(=O)N1C[C@@H](O)[C@H](NC(=O)c2c(C)[nH]c3c(-c4cc(OC)ccc4OCC4CC4)ncnc23)C1` (relative stereo) [Example E194, 4-[2-(Cyclopropylmethoxy)-5-methoxyphenyl]-N-[(3R*,4R*)-4-hydroxy-1-(methoxyacetyl)pyrrolidin-3-yl]-6-methyl-5H-pyrrolo[3,2-d]pyrimidine-7-carboxamide], the IC50 is 1 to 10 nM.

With `Cc1[nH]c2c(-c3c(OCC4CC4)ccc4c3OCO4)ncnc2c1C(=O)N[C@@H]1CN(C(=O)CO)C[C@H]1O` (relative stereo) [Example F9, 4-[5-(Cyclopropylmethoxy)-1,3-benzodioxol-4-yl]-N-[(3R*,4R*)-1-glycoloyl-4-hydroxypyrrolidin-3-yl]-6-methyl-5H-pyrrolo[3,2-d]pyrimidine-7-carboxamide], the IC50 is less than 1 nM. As for `Cc1[nH]c2c(-c3ccc(F)cc3OCC3CC3)ncnc2c1C(=O)N[C@@H]1CN(C(=O)CO)C[C@H]1O` (relative stereo) [Example F19, 4-[2-(Cyclopropylmethoxy)-4-fluorophenyl]-N-[(3R*,4R*)-4-hydroxy-1-(hydroxyacetyl)pyrrolidin-3-yl]-6-methyl-5H-pyrrolo[3,2-d]pyrimidine-7-carboxamide], the figure is 1 to 10 nM. Under `Cc1[nH]c2c(-c3ccc(F)cc3OCC3CC3)ncnc2c1C(=O)N[C@H]1CCN(C(=O)CO)C[C@@H]1O` (relative stereo) [Example F21, 4-[2-(Cyclopropylmethoxy)-4-fluorophenyl]-N-[(3S*,4S*)-3-hydroxy-1-(hydroxyacetyl)piperidin-4-yl]-6-methyl-5H-pyrrolo[3,2-d]pyrimidine-7-carboxamide] stands 1 to 10 nM. For the molecule `Cc1[nH]c2c(-c3cc(F)ccc3OCC3CC3)ncnc2c1C(=O)N[C@@H]1CCN(C(=O)CO)C[C@H]1O` (relative stereo) [Example F30, 4-[2-(Cyclopropylmethoxy)-5-fluorophenyl]-N-[(3R*,4R*)-3-hydroxy-1-(hydroxyacetyl)piperidin-4-yl]-6-methyl-5H-pyrrolo[3,2-d]pyrimidine-7-carboxamide], the IC50 was 1 to 10 nM. With `COc1ccc(-c2ncnc3c(C(=O)N[C@@H]4CN(C(=O)CO)C[C@H]4O)c(C)[nH]c23)c(OCC2CC2)c1` (relative stereo) [Example F39, 4-[2-(Cyclopropylmethoxy)-4-methoxyphenyl]-N-[(3R*,4R*)-1-glycoloyl-4-hydroxypyrrolidin-3-yl]-6-methyl-5H-pyrrolo[3,2-d]pyrimidine-7-carboxamide], the IC50 was less than 1 nM. As for `COc1ccc(OCC2CC2)c(-c2ncnc3c(C(=O)N[C@@H]4CCN(C(=O)CO)C[C@H]4O)c(C)[nH]c23)c1` (relative stereo) [Example F49, 4-[2-(Cyclopropylmethoxy)-5-methoxyphenyl]-N-[(3R*,4R*)-3-hydroxy-1-(hydroxyacetyl)piperidin-4-yl]-6-methyl-5H-pyrrolo[3,2-d]pyrimidine-7-carboxamide], the IC50 was less than 1 nM. Regarding `COc1cc(-c2ncnc3c(C(=O)N[C@@H]4CCN(C(=O)CO)C[C@H]4O)c(C)[nH]c23)c(OCC2CC2)cc1F` (relative stereo) [Example F71, 4-[2-(Cyclopropylmethoxy)-4-fluoro-5-methoxyphenyl]-N-[(3R*,4R*)-1-glycoloyl-3-hydroxypiperidin-4-yl]-6-methyl-5H-pyrrolo[3,2-d]pyrimidine-7-carboxamide], the IC50 was less than 1 nM. Regarding `COc1cc(-c2ncnc3c(C(=O)N[C@H]4CN(C(=O)CO)CC[C@@H]4O)c(C)[nH]c23)c(OCC2CC2)cc1F` (relative stereo) [Example F73, 4-[2-(Cyclopropylmethoxy)-4-fluoro-5-methoxyphenyl]-N-[(3S*,4S*)-1-glycoloyl-4-hydroxypiperidin-3-yl]-6-methyl-5H-pyrrolo[3,2-d]pyrimidine-7-carboxamide], the IC50 was less than 1 nM. `Cc1cc(-c2ncnc3c(C(=O)N[C@@H]4CCN(C(=O)CO)C[C@H]4O)c(C)[nH]c23)c(OCC2CC2)cc1F` (relative stereo) [Example F81, 4-[2-(Cyclopropylmethoxy)-4-fluoro-5-methylphenyl]-N-[(3R*,4R*)-3-hydroxy-1-(hydroxyacetyl)piperidin-4-yl]-6-methyl-5H-pyrrolo[3,2-d]pyrimidine-7-carboxamide]: the IC50 was less than 1 nM. In the case of `COc1cc(OCC2CC2)c(-c2ncnc3c(C(=O)N[C@@H]4CCN(C(=O)CO)C[C@H]4O)c(C)[nH]c23)cc1F` (relative stereo) [Example F89, 4-[2-(cyclopropylmethoxy)-5-fluoro-4-methoxyphenyl]-N-[(3R*,4R*)-3-hydroxy-1-(hydroxyacetyl)piperidin-4-yl]-6-methyl-5H-pyrrolo[3,2-d]pyrimidine-7-carboxamide], the IC50 is less than 1 nM.

The values above are taken from patent publication US9376442B2, “Methylpyrrolopyrimidinecarboxamides” (Takeda GmbH, priority 2009, dated 2016).
